Structures are written as SMILES.

Series [1] deals with Mus musculus. As to the kind of experiment: Antidepressant-like activity in Swiss albino mouse assessed as reduction of immobility time at 100 mg/kg, ip measured last 4 mins for 6 mins test by tail suspension test (reference value: 116.4 +/- 4.6 sec). It is filed as functional. The conditions noted are these: route intraperitoneal.
Series [2] has as its system Mus musculus. Description: Antidepressant-like activity in Swiss albino mouse assessed as effect on climbing time at 100 mg/kg, ip after 24 hrs measured for 5 mins by modified forced swimming test (reference value: 56.8 +/- 2.6 sec). It is filed as functional. The conditions noted are these: route intraperitoneal.
Series [3] has as its system Mus musculus. Description: Antidepressant-like activity in Swiss albino mouse assessed as effect on swimming time at 100 mg/kg, ip after 24 hrs measured for 5 mins by modified forced swimming test (reference value: 95 +/- 9.7 sec). It is filed as functional. Conditions: route intraperitoneal.
For series [4], the system named is Mus musculus. Description: Antidepressant-like activity in Swiss albino mouse assessed as effect on immobility time at 100 mg/kg, ip after 24 hrs measured for 5 mins by modified forced swimming test (reference value: 102.2 +/- 7.5 sec). It is filed as functional. The conditions noted are these: route intraperitoneal.
Series [5] concerns Mus musculus. Description: Neurotoxicity in Swiss albino mouse assessed as effect on motor coordination at 100 mg/kg, ip by rotarod test. It is filed as toxicity, organism-based. Details: dose 100 mg/kg, route intraperitoneal. Conditions: in vivo. For orientation: In the rotarod test animals must keep their balance on a rotating rod.
The subject of series [6] is Mus musculus. Description: Antidepressant-like activity in Swiss albino mouse assessed as reduction of immobility time at 10 mg/kg, ip measured last 4 mins for 6 mins test by tail suspension test (reference value: 116.4 +/- 4.6 sec). It is filed as functional. The conditions noted are these: route intraperitoneal.
In series [7] the test system is Mus musculus. As to the kind of experiment: Antidepressant-like activity in Swiss albino mouse assessed as effect on climbing time at 10 mg/kg, ip after 24 hrs measured for 5 mins by modified forced swimming test (reference value: 56.8 +/- 2.6 sec). It is filed as functional. The conditions noted are these: route intraperitoneal.
The subject of series [8] is Mus musculus. Description: Antidepressant-like activity in Swiss albino mouse assessed as effect on swimming time at 10 mg/kg, ip after 24 hrs measured for 5 mins by modified forced swimming test (reference value: 95 +/- 9.7 sec). Conditions: route intraperitoneal. It is filed as functional.
The subject of series [9] is Mus musculus. Description: Antidepressant-like activity in Swiss albino mouse assessed as effect on immobility time at 10 mg/kg, ip after 24 hrs measured for 5 mins by modified forced swimming test (reference value: 102.2 +/- 7.5 sec). It is filed as functional. The conditions noted are these: route intraperitoneal.

For the compound `Nn1c(CCc2ccc(O)cc2)nnc1SCC(=O)N1N=C(c2cccs2)CC1c1ccc2c(c1)OCO2` (centres undefined), the Time is 96.1 s in [1], 54.1 s in [2], 144.7 s in [3] and 69.9 s in [4]. Besides, the Activity entry in [5] is “Non-toxic”.
For `Nn1c(CCc2ccc(O)cc2)nnc1SCC(=O)N1N=C(c2cccs2)CC1c1ccccc1` (centres undefined), in that order: 69 s, 43.3 s, 191.8 s, 33.3 s and “Non-toxic”.
Regarding `Nn1c(CCc2ccc(O)cc2)nnc1SCC(=O)N1N=C(c2cccs2)CC1c1ccc(F)cc1` (centres undefined), the Time in series [1] was 78.8 s; in [2], 48.8 s; in series [3] it was 153.3 s; in series [4] it was 52.5 s. For the same compound, the Activity entry in [5] is listed as “Non-toxic”.
For `Nn1c(CCc2ccc(O)cc2)nnc1SCC(=O)N1N=C(c2cccs2)CC1c1ccc(Cl)cc1` (centres undefined), in that order: 72.1 s, 45 s, 193.7 s, 40.5 s and “Non-toxic”.
The like results for `Cc1ccc(C2CC(c3cccs3)=NN2C(=O)CSc2nnc(CCc3ccc(O)cc3)n2N)cc1` (centres undefined) were, in that order, 85.9 s, 54.4 s, 147.8 s, 58.4 s and “Non-toxic”.
The like results for `CN(C)c1ccc(C2CC(c3cccs3)=NN2C(=O)CSc2nnc(CCc3ccc(O)cc3)n2N)cc1` (centres undefined) were, in that order, 93.5 s, 53.5 s, 140 s, 66.2 s and “Non-toxic”.
With `CNCCC(Oc1ccc(C(F)(F)F)cc1)c1ccccc1` (centres undefined) [FLUOXETINE], the Time is 90.6 s in series [6], 47.8 s in [7], 148.5 s in [8] and 67.6 s in series [9].
